According to US6613799B1, “Liposoluble platinum (II) complex and preparation thereof” (priority 1985, dated 2003):
Like-named read-outs stand apart in the source and are kept apart here. Marks after values point to notes of the source that are not given here.

Tests used:
L 1210 leukemia cells = format: in vivo
[1] = cited from earlier work
[2] = 11.6 mg/kg × 2 i.p., dispersion in lipiodol, oleic acid moiety two times stoichiometric amount, Table III
[3] = L1210-CDF1 mice, dispersion in lipiodol
[4] = 25 mg/kg × 2 i.p. in lipiodol, Table I
[5] = 126 mg/kg × 2 i.p. in lipiodol, Table I
[6] = 630 mg/kg × 2 i.p. in lipiodol, Table I
[7] = 31.5 mg/kg × 2 i.p. in lipiodol, Table III
[8] = 157 mg/kg × 2 i.p. in lipiodol, Table III
[9] = 787 mg/kg, administered only one time, i.p. in lipiodol, Table III
[10] = 57 mg/kg × 2 i.p. in lipiodol, Table III
[11] = 171 mg/kg × 2 i.p. in lipiodol, Table III
[12] = 855 mg/kg × 2 i.p. in lipiodol, Table III

Structure (SMILES): CCCCCCCCCCCCCCCC(=O)[O][Pt][O]C(=O)CCCCCCCCCCCCCCC.NC1CCCCC1N [DACHPt(II)-(Pal)2]
- T/C (mean survival time treated / control) (L 1210 leukemia cells; 40 mg/kg × 2 i.p. in lipiodol, Table I): 110
- MST (mean survival time) (L 1210 leukemia cells; 40 mg/kg × 2 i.p. in lipiodol, Table I control MST 10): 11
- T/C (mean survival time treated / control) (L 1210 leukemia cells; 198 mg/kg × 2 i.p. in lipiodol, Table I): 115
- MST (mean survival time) (L 1210 leukemia cells; 198 mg/kg × 2 i.p. in lipiodol, Table I control MST 10): 11.5
- T/C (mean survival time treated / control) (L 1210 leukemia cells; 991 mg/kg × 2 i.p. in lipiodol, Table I): 170
- MST (mean survival time) (L 1210 leukemia cells; 991 mg/kg × 2 i.p. in lipiodol, Table I control MST 10): 17
- CR (mice completely cured / total mice tested) (L 1210 leukemia cells; mouse, in vivo): 0/6

Structure (SMILES): CCCCCCCCCCCCCC(=O)[O][Pt][O]C(=O)CCCCCCCCCCCCC.NC1CCCCC1N [DACHPt(II)-(Myr)2]
- T/C (mean survival time treated / control) (L 1210 leukemia cells; 33 mg/kg × 2 i.p. in lipiodol, Table I): 150
- MST (mean survival time) (L 1210 leukemia cells; 33 mg/kg × 2 i.p. in lipiodol, Table I control MST 10): 15.0
- T/C (mean survival time treated / control) (L 1210 leukemia cells; 833 mg/kg, administered only one time, i.p. in lipiodol, Table I): Toxic
- MST (mean survival time) (L 1210 leukemia cells; 833 mg/kg, administered only one time, i.p. in lipiodol, Table I control MST 10): 8.0*^1

Structure (SMILES): CCCCCCCCCCCCCCCCCC(=O)[O][Pt][O]C(=O)CCCCCCCCCCCCCCCCC.NC1CCCCC1N [DACHPt(II)-(Ste)2]
- T/C (mean survival time treated / control) (L 1210 leukemia cells; 71 mg/kg × 2 i.p. in lipiodol, Table III): 212
- MST (mean survival time) (L 1210 leukemia cells; 71 mg/kg × 2 i.p. in lipiodol, Table III control MST 8.5): 18.0
- T/C (mean survival time treated / control) (L 1210 leukemia cells; 1060 mg/kg, administered only one time, i.p. in lipiodol, Table III): Toxic
- MST (mean survival time) (L 1210 leukemia cells; 1060 mg/kg, administered only one time, i.p. in lipiodol, Table III control MST 8.5): 7.0*^1
- CR (mice completely cured / total mice tested) (L 1210 leukemia cells; mouse, in vivo): 2/5

Structure (SMILES): NCC1(CN)CCCCC1.O=S(=O)([O-])[O-].[Pt+2] [spiroplatin, cis-1,1-di-(aminomethyl) cyclohexane platinum (II) sulfate]
- water solubility [1]: 1000 µg/mL

Structure (SMILES): CCCCCCCCCCCCCCCCCCCCCCCC(=O)[O][Pt][O]C(=O)CCCCCCCCCCCCCCCCCCCCCCC.NC1CCCCC1N [DACHPt(II)-(Lig)2]
- T/C (mean survival time treated / control) (L 1210 leukemia cells; 50 mg/kg × 2 i.p. in lipiodol, Table I): 150
- MST (mean survival time) (L 1210 leukemia cells; 50 mg/kg × 2 i.p. in lipiodol, Table I control MST 10): 10
- T/C (mean survival time treated / control) (L 1210 leukemia cells; 250 mg/kg × 2 i.p. in lipiodol, Table I): 100
- MST (mean survival time) (L 1210 leukemia cells; 250 mg/kg × 2 i.p. in lipiodol, Table I control MST 10): 10
- T/C (mean survival time treated / control) (L 1210 leukemia cells; 1250 mg/kg × 2 i.p. in lipiodol, Table I): 105
- MST (mean survival time) (L 1210 leukemia cells; 1250 mg/kg × 2 i.p. in lipiodol, Table I control MST 10): 10.5
- CR (mice completely cured / total mice tested) (L 1210 leukemia cells; mouse, in vivo): 0/6

Structure (SMILES): N.N.O=C([O-])C1(C(=O)[O-])CCC1.[Pt+2] [carboplatin, cis-diammine-1,1-cyclobutane-dicarboxylate platinum (II)]
- water solubility [1]: 17800 µg/mL

Structure (SMILES): N.N.[Cl][Pt][Cl] [CDDP, Cis-dichlorodiammine platinum (II), reference compound]
- CR (mice completely cured / total mice tested) (L 1210 leukemia cells; [2]): 0/5
- T/C (mean survival time treated / control) (L 1210 leukemia cells; [2]): 182
- MST (mean survival time) (L 1210 leukemia cells; 11.6 mg/kg × 2 i.p., dispersion in lipiodol, oleic acid moiety two times stoichiometric amount, Table III control MST 8.5): 15.5
- T/C (mean survival time treated / control) (L 1210 leukemia cells; 58 mg/kg × 2 i.p., dispersion in lipiodol, oleic acid moiety two times stoichiometric amount, Table III): Toxic
- MST (mean survival time) (L 1210 leukemia cells; 58 mg/kg × 2 i.p., dispersion in lipiodol, oleic acid moiety two times stoichiometric amount, Table III control MST 8.5): 4.0
- complete recovery at rather low dose (L 1210 leukemia cells; [3]): complete recovery is not observed

Structure (SMILES): NC1CCCCC1N.[Cl][Pt][Cl] (stereo not drawn) [DACHP, Dichloro cyclohexane-1,2-diammine platinum (II), reference compound]
- T/C (mean survival time treated / control) (L 1210 leukemia cells; 22 mg/kg × 2 i.p., dispersion in lipiodol, oleic acid moiety two times stoichiometric amount, Table III): Toxic
- MST (mean survival time) (L 1210 leukemia cells; 22 mg/kg × 2 i.p., dispersion in lipiodol, oleic acid moiety two times stoichiometric amount, Table III control MST 8.5): 7.0
- T/C (mean survival time treated / control) (L 1210 leukemia cells; 110 mg/kg × 2 i.p., dispersion in lipiodol, oleic acid moiety two times stoichiometric amount, Table III): Toxic
- MST (mean survival time) (L 1210 leukemia cells; 110 mg/kg × 2 i.p., dispersion in lipiodol, oleic acid moiety two times stoichiometric amount, Table III control MST 8.5): 4.0
- toxicity when administered in a high dose (L 1210 leukemia cells; high dose, L1210-CDF1 mice, i.p. in lipiodol): high toxicity
- complete recovery at rather low dose (L 1210 leukemia cells; [3]): complete recovery is not observed

Structure (SMILES): CCCCCCCCCCCCCCCCCCCC(=O)[O][Pt][O]C(=O)CCCCCCCCCCCCCCCCCCC.NC1CCCCC1N [DACHPt(II)-(Ara)2]
- T/C (mean survival time treated / control) (L 1210 leukemia cells; 73 mg/kg × 2 i.p. in lipiodol, Table II): 211
- MST (mean survival time) (L 1210 leukemia cells; 73 mg/kg × 2 i.p. in lipiodol, Table II control MST 9.5): 20
- T/C (mean survival time treated / control) (L 1210 leukemia cells; 225 mg/kg × 2 i.p. in lipiodol, Table II): 600
- MST (mean survival time) (L 1210 leukemia cells; 225 mg/kg × 2 i.p. in lipiodol, Table II control MST 9.5): 60
- T/C (mean survival time treated / control) (L 1210 leukemia cells; 1127 mg/kg × 2 i.p. in lipiodol, Table II): Toxic
- MST (mean survival time) (L 1210 leukemia cells; 1127 mg/kg × 2 i.p. in lipiodol, Table II control MST 9.5): 7.0

Structure (SMILES): CCCCCCCC/C=C\CCCCCCCC(=O)[O-].CCCCCCCC/C=C\CCCCCCCC(=O)[O-].NC1CCCCC1N.[Pt+2] [DACHPt(II)-(Ole)2, Cyclohexane-1,2-diammine Platinum (II) Dioleate]
- CR (mice completely cured / total mice tested) (L 1210 leukemia cells; [4]): 0/5
- T/C (mean survival time treated / control) (L 1210 leukemia cells; [4]): 130
- MST (mean survival time) (L 1210 leukemia cells; 25 mg/kg × 2 i.p. in lipiodol, Table I control MST 10): 13.0
- CR (mice completely cured / total mice tested) (L 1210 leukemia cells; [5]): 0/6
- T/C (mean survival time treated / control) (L 1210 leukemia cells; [5]): 170
- MST (mean survival time) (L 1210 leukemia cells; 126 mg/kg × 2 i.p. in lipiodol, Table I control MST 10): 17.0
- CR (mice completely cured / total mice tested) (L 1210 leukemia cells; [6]): 2/7
- T/C (mean survival time treated / control) (L 1210 leukemia cells; [6]): Toxic

Structure (SMILES): CCCCCCCCCC(=O)[O][Pt]1([O]C(=O)CCCCCCCCC)[NH]C2CCCCC2[NH]1 (stereo not drawn) [DACHPt(II)-(Cap)2]
- CR (mice completely cured / total mice tested) (L 1210 leukemia cells; [7]): 0/6
- T/C (mean survival time treated / control) (L 1210 leukemia cells; [7]): 133
- MST (mean survival time) (L 1210 leukemia cells; 31.5 mg/kg × 2 i.p. in lipiodol, Table III control MST 8.5): 12.0
- CR (mice completely cured / total mice tested) (L 1210 leukemia cells; [8]): 2/6
- T/C (mean survival time treated / control) (L 1210 leukemia cells; [8]): Toxic
- CR (mice completely cured / total mice tested) (L 1210 leukemia cells; [9]): 0/6
- T/C (mean survival time treated / control) (L 1210 leukemia cells; [9]): 111
- MST (mean survival time) (L 1210 leukemia cells; 787 mg/kg, administered only one time, i.p. in lipiodol, Table III control MST 8.5): 10.0*^1

Structure (SMILES): CCCCCCCCCCCC(=O)[O][Pt][O]C(=O)CCCCCCCCCCC.NC1CCCCC1N [DACHPt(II)-(Lau)2]
- CR (mice completely cured / total mice tested) (L 1210 leukemia cells; [10]): 0/5
- T/C (mean survival time treated / control) (L 1210 leukemia cells; [10]): 141
- MST (mean survival time) (L 1210 leukemia cells; 57 mg/kg × 2 i.p. in lipiodol, Table III control MST 8.5): 12.0
- CR (mice completely cured / total mice tested) (L 1210 leukemia cells; [11]): 0/5
- T/C (mean survival time treated / control) (L 1210 leukemia cells; [11]): 165
- MST (mean survival time) (L 1210 leukemia cells; 171 mg/kg × 2 i.p. in lipiodol, Table III control MST 8.5): 14.0
- CR (mice completely cured / total mice tested) (L 1210 leukemia cells; [12]): 3/5
- T/C (mean survival time treated / control) (L 1210 leukemia cells; [12]): 471
- MST (mean survival time) (L 1210 leukemia cells; 855 mg/kg × 2 i.p. in lipiodol, Table III control MST 8.5): 40.0

Structure (SMILES): CCCCCCCCCCCCCCCCCCCCCC(=O)[O][Pt][O]C(=O)CCCCCCCCCCCCCCCCCCCCC.NC1CCCCC1N [DACHPt(II)-(Beh)2]
- T/C (mean survival time treated / control) (L 1210 leukemia cells; 80 mg/kg × 2 i.p. in lipiodol, Table III): 212
- MST (mean survival time) (L 1210 leukemia cells; 80 mg/kg × 2 i.p. in lipiodol, Table III control MST 8.5): 18.0
- T/C (mean survival time treated / control) (L 1210 leukemia cells; 1195 mg/kg, administered only one time, i.p. in lipiodol, Table III): Toxic
- MST (mean survival time) (L 1210 leukemia cells; 1195 mg/kg, administered only one time, i.p. in lipiodol, Table III control MST 8.5): 2.0*^1
